Target: BRD4(BD1) (Homo sapiens (Human), UniProt O60885)
Test: In vitro enzyme inhibition assay (BRD4 AlphaScreen)
Assay type: binding
Conditions: in vitro enzyme inhibition assay
Method: His-tagged BRD4 was cloned, expressed and purified to homogeneity. […] BRD4 binding and inhibition was assessed by monitoring the interaction of biotinylated H4-tetraacetyl peptide (AnaSpec, H4K5/8/12/16(Ac), biotin-labeled) with the target using the AlphaScreen technology (Life Technologies). […] After 20 min incubation at room temp, Alpha streptavidin donor beads and Nickel Chelate acceptor beads were added to a final concentration of 5 μg/mL.
The ability of the compounds disclosed herein to inhibit BRD4 activity was quantified and the respective IC50 value was determined.

IC50 [nM]	Compound
< 500	Cn1cc(-c2cc(CS(C)(=O)=O)ccc2OCC(F)(F)F)cc(F)c1=O [Example 421, 3-fluoro-1-methyl-5-[5-(methylsulfonylmethyl)-2-(2,2,2-trifluoroethoxy)phenyl]pyridin-2-one]
500 to 5000	Cc1cc(=O)n(C)cc1-c1cc(S(C)(=O)=O)ccc1NCC1CC1 [Example 422, 5-[2-(cyclopropylmethylamino)-5-methylsulfonylphenyl]-1,4-dimethylpyridin-2-one]
500 to 5000	CCS(=O)(=O)c1ccc(NCC2CC2)c(-c2cn(C)c(=O)cc2C)c1 [Example 423, 5-[2-(cyclopropylmethylamino)-5-ethylsulfonylphenyl]-1,4-dimethylpyridin-2-one]
> 5000	CCS(=O)(=O)Nc1cc(-c2ccc(=O)n(C)c2)c(-c2ccccc2)s1 [Example 424, N-[4-(1-methyl-6-oxopyridin-3-yl)-5-phenylthiophen-2-yl]ethanesulfonamide]
< 500	Cc1cc(-c2cc(S(C)(=O)=O)ccc2NC2CCOC2)cn(C)c1=O (stereo not shown) [Example 425, 1,3-dimethyl-5-[5-methylsulfonyl-2-(oxolan-3-ylamino)phenyl]pyridin-2-one]
> 5000	CCS(=O)(=O)Nc1cc(-c2ccc(=O)n(C)c2)c(-c2ccccc2C)s1 [Example 432, N-[4-(1-methyl-6-oxopyridin-3-yl)-5-(2-methylphenyl)thiophen-2-yl]ethanesulfonamide]
> 5000	CCc1ccccc1-c1sc(NS(=O)(=O)CC)cc1-c1ccc(=O)n(C)c1 [Example 435, N-[5-(2-ethylphenyl)-4-(1-methyl-6-oxopyridin-3-yl)thiophen-2-yl] ethanesulfonamide]
< 500	Cn1cc(-c2cc(S(C)(=O)=O)ccc2OCC2CCC2)ccc1=O [Example 460, 5-[2-(cyclobutylmethoxy)-5-methylsulfonylphenyl]-1-methylpyridin-2-one]
500 to 5000	CCS(=O)(=O)c1ccc(OC)c(-c2cc(O)c(=O)n(C)c2)c1 [Example 461, 5-(5-ethylsulfonyl-2-methoxyphenyl)-3-hydroxy-1-methylpyridin-2-one]
> 5000	Cn1cc(-c2cccc(NS(C)(=O)=O)c2)cc(OCc2ccccc2)c1=O [Example 471, N-[3-(1-methyl-6-oxo-5-phenylmethoxypyridin-3-yl)phenyl]methanesulfonamide]
500 to 5000	COc1cc(F)c(CS(C)(=O)=O)cc1-c1ccc(=O)n(C)c1 [Example 475, 5-[4-fluoro-2-methoxy-5-(methylsulfonylmethyl)phenyl]-1-methylpyridin-2-one]
> 5000	CC(=O)Nc1nc(-c2cccc(NS(C)(=O)=O)c2)cn(C)c1=O [Example 478, N-[6-[3-(methanesulfonamido)phenyl]-4-methyl-3-oxopyrazin-2-yl]acetamide]
> 5000	CCS(=O)(=O)Nc1cccc(-c2nn(C)c(=O)cc2C)c1 [Example 479, N-[3-(1,4-dimethyl-6-oxopyridazin-3-yl)phenyl]ethanesulfonamide]
500 to 5000	CCS(=O)(=O)Nc1cccc(-c2cc(C)c(=O)n(C)n2)c1 [Example 480, N-[3-(1,5-dimethyl-6-oxopyridazin-3-yl)phenyl]ethanesulfonamide]
> 5000	CCC(=O)Nc1cc(-c2cccc(NS(C)(=O)=O)c2)cn(C)c1=O [Example 481, N-[5-[3-(methanesulfonamido)phenyl]-1-methyl-2-oxopyridin-3-yl]propanamide]
> 5000	CC(=O)Nc1cc(-c2cccc(NS(C)(=O)=O)c2)cn(C)c1=O [Example 482, N-[5-[3-(methanesulfonamido)phenyl]-1-methyl-2-oxopyridin-3-yl]acetamide]
< 500	Cc1cc(-c2cc(S(C)(=O)=O)ccc2OCC2CC2)cn(C2CCC2)c1=O [Example 483, 1-cyclobutyl-5-[2-(cyclopropylmethoxy)-5-methylsulfonylphenyl]-3-methylpyridin-2-one]

Second part, the molecule before the results:

Compound	IC50 [nM]
CCCc1cnc(NS(=O)(=O)CC)nc1-c1cc(OC)c(=O)n(C)c1 [Example 361, N-[4-(5-methoxy-1-methyl-6-oxopyridin-3-yl)-5-propylpyrimidin-2-yl]ethanesulfonamide]	< 500
CCCCc1cnc(NS(=O)(=O)CC)nc1-c1cc(OC)c(=O)n(C)c1 [Example 362, N-[5-butyl-4-(5-methoxy-1-methyl-6-oxopyridin-3-yl)pyrimidin-2-yl]ethanesulfonamide]	< 500
CCCCc1cnc(NS(C)(=O)=O)nc1-c1cc(C)c(=O)n(C)c1 [Example 363, N-[5-butyl-4-(1,5-dimethyl-6-oxopyridin-3-yl)pyrimidin-2-yl]methanesulfonamide]	< 500
CC(C)S(=O)(=O)c1ccc(OCC2CC2)c(-c2cn(C)c(=O)c3ccccc23)c1 [Example 364, 4-[2-(cyclopropylmethoxy)-5-propan-2-ylsulfonylphenyl]-2-methylisoquinolin-1-one]	< 500
CCS(=O)(=O)c1ccc(NCC2CC2)c(-c2cn(C)c(=O)c3cncn23)c1 [Example 375, 5-[2-(cyclopropylmethylamino)-5-ethylsulfonylphenyl]-7-methylimidazo[1,5-a]pyrazin-8-one]	< 500
CCC#CCOc1ccc(S(=O)(=O)CC)cc1-c1cc(OC)c(=O)n(C)c1 [Example 390, 5-(5-ethylsulfonyl-2-pent-2-ynoxyphenyl)-3-methoxy-1-methylpyridin-2-one]	< 500
CCS(=O)(=O)c1ccc(Oc2ccc(F)cc2F)c(-c2cc(C(F)(F)F)c(=O)n(C)c2)c1 [Example 392, 5-[2-(2,4-difluorophenoxy)-5-ethylsulfonylphenyl]-1-methyl-3-(trifluoromethyl)pyridin-2-one]	500 to 5000
COc1ccc2c(=O)n(C)cc(-c3cc(S(=O)(=O)C(C)C)ccc3OCC3CC3)c2c1 [Example 393, 4-[2-(cyclopropylmethoxy)-5-propan-2-ylsulfonylphenyl]-6-methoxy-2-methylisoquinolin-1-one]	< 500
Cc1cc(-c2cc(S(=O)(=O)C(C)C)ccc2OCC2CC2)cn(C)c1=O [Example 394, 5-[2-(cyclopropylmethoxy)-5-propan-2-ylsulfonylphenyl]-1,3-dimethylpyridin-2-one]	< 500
CCS(=O)(=O)Nc1cc(OCc2ccccc2)cc(-c2cc(C)c(=O)n(C)c2)c1 [Example 395, N-[3-(1,5-dimethyl-6-oxopyridin-3-yl)-5-phenylmethoxyphenyl]ethanesulfonamide]	< 500
Cc1cc(-c2cc(S(C)(=O)=O)ccc2O[C@H]2CC[C@@H](N)CC2)cn(C)c1=O [Example 403, 5-[2-(cis-4-aminocyclohexyl)oxy-5-methylsulfonylphenyl]-1,3-dimethylpyridin-2-one]	< 500
Cc1cc(-c2cc(S(C)(=O)=O)ccc2OCCC(F)(F)F)cn(C)c1=O [Example 405, 1,3-dimethyl-5-[5-methylsulfonyl-2-(3,3,3-trifluoropropoxy)phenyl]pyridin-2-one]	< 500
Cc1cc(-c2cc(CS(C)(=O)=O)ccc2Oc2ccc(F)cc2F)cn(CCO)c1=O [Example 406, 5-[2-(2,4-difluorophenoxy)-5-(methylsulfonylmethyl)phenyl]-1-(2-hydroxyethyl)-3-methylpyridin-2-one]	< 500
CCS(=O)(=O)Cc1ccc(OCC(F)(F)F)c(-c2cc(C)c(=O)n(CCO)c2)c1 [Example 407, 5-[5-(ethylsulfonylmethyl)-2-(2,2,2-trifluoroethoxy)phenyl]-1-(2-hydroxyethyl)-3-methylpyridin-2-one]	500 to 5000
CCS(=O)(=O)c1ccc(NCC2CC2)c(-c2cc(NC)c(=O)n(C)c2)c1 [Example 408, 5-[2-(cyclopropylmethylamino)-5-ethylsulfonylphenyl]-1-methyl-3-(methylamino)pyridin-2-one]	< 500
CCS(=O)(=O)c1ccc(OCC2CC2)c(-c2cc(NC)c(=O)n(C)c2)c1 [Example 409, 5-[2-(cyclopropylmethoxy)-5-ethylsulfonylphenyl]-1-methyl-3-(methylamino)pyridin-2-one]	< 500
CCS(=O)(=O)Nc1ccc(Oc2ccc(F)cc2F)c(-c2cc(NC)c(=O)n(C)c2)c1 [Example 410, N-[4-(2,4-difluorophenoxy)-3-[1-methyl-5-(methylamino)-6-oxopyridin-3-yl]phenyl]ethanesulfonamide]	< 500
CCS(=O)(=O)Cc1ccc(OCC(F)(F)F)c(-c2cc(C)c(=O)n(C)c2)c1 [Example 411, 5-[5-(ethylsulfonylmethyl)-2-(2,2,2-trifluoroethoxy)phenyl]-1,3-dimethylpyridin-2-one]	< 500
CNc1cc(-c2cc(NS(C)(=O)=O)ccc2Oc2ccc(F)cc2F)cn(C)c1=O [Example 412, N-[4-(2,4-difluorophenoxy)-3-[1-methyl-5-(methylamino)-6-oxopyridin-3-yl]phenyl]methanesulfonamide]	< 500
Cc1cc(-c2cc(S(C)(=O)=O)ccc2NC2CCC(F)(F)CC2)cn(C)c1=O [Example 413, 5-[2-[(4,4-difluorocyclohexyl)amino]-5-methylsulfonylphenyl]-1,3-dimethylpyridin-2-one]	< 500
CCS(=O)(=O)c1ccc(NCC2CC2)c(-c2cc(OC)c(=O)n(C)c2)c1 [Example 414, 5-[2-(cyclopropylmethylamino)-5-ethylsulfonylphenyl]-3-methoxy-1-methylpyridin-2-one]	< 500
[2H]C([2H])([2H])n1cc(-c2cc(S(=O)(=O)CC)ccc2OCC)c(C)cc1=O [Example 456, 5-(2-ethoxy-5-ethylsulfonylphenyl)-1-(^2H3)methyl-4-methylpyridin-2-one]	< 500
CCOc1ccc(S(=O)(=O)CC)cc1-c1cn(C)c(=O)cc1C [Example 458, 5-(2-ethoxy-5-ethylsulfonylphenyl)-1,4-dimethylpyridin-2-one]	< 500
